Assay results published in US8686115B2, “Compositions and methods for quantitatively monitoring lipids” (The Board of Trustees of the University of Illinois, priority 2009, dated 2014).
Numbering of substitutions follows the chain as printed.

Assays:
[1] = molecular target: T1, epsin 1 ENTH domain, wild type, SEQ ID NO: 1 (Homo sapiens, UniProt Q9Y6I3); experiment: SPR equilibrium binding of epsin1 ENTH domain (wild type) to phosphoinositide-containing LUVs
T1 construct: The Epsin1 ENTH domain (1-158 amino acids) was subcloned; GST (C, cleaved yes); made in house; host or cells: E. coli BL21 RIL codon plus
T1 sequence (Q9Y6I3 1-158): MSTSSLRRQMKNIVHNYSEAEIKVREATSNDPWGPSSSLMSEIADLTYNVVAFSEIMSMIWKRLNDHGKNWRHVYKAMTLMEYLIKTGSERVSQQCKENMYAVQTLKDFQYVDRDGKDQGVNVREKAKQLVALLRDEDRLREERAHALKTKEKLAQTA
Excerpt: (§1) The ENTH domain was engineered to introduce a single labeling site (M10C) on the membrane binding surface while removing an endogenous Cys (C96A). We also performed the S4W mutation to suppress its residual affinity for another lipid, phosphatidylinositol-3,4,5-trisphosphate (PtdIns(3,4,5)P3) (PtdIns(4,5)P2/PtdIns(3,4,5)P3=4 for wild type and >10 for the mutant) and to enhance the overall affinity for PtdIns(4,5)P2-containing membranes (ca. 4-fold) (Table 1).
(§2) With respect to FIG. 1, an L1 sensor chip was coated with POPC/POPS/PtdIns(4,5)P2 (77:20:3) LUVs. The proteins were incubated with a given concentration of IP3 for 5 minutes before injecting into the SPR instrument. Kinetic SPR measurements were performed in 20 mM Tris-HCL, pH 7.4, containing 0.16 KCl. […] A lower concentration of DAN-eENTH was used than that of PLCδ PH because the former has much higher affinity that the latter.
The Epsin1 ENTH domain (1-158 amino acids) was subcloned into the pGEX4T-1 vector and expressed as a […] glutathione S-transferase (GST)-tagged protein. The ENTH domain amino acid sequence is as follows:
E. coli BL21 RIL codon plus (Stratagene) cells were used for protein expression. Cells were grown in Luria broth media containing 100 μg/ml of ampicillin at 37° C. 0.1 mM of Isopropyl β-D-1-thiogalactopyranoside was added to induce over-expression of recombinant proteins when the OD600 reached 0.5-0.8 and cells were grown for additional 6 to 10 hours at 25° C. Cells were harvested by centrifugation and cell pellets were resuspended in 50 mM Tris-HCl buffer (pH 7.4) containing 160 mM KCl, 1 mM phenylmethanesulphonylfluoride, and 5 mM of dithiothreitol (DTT). Cells were lysed by sonication and the lysate was collected by centrifugation at 4° C. The GST-affinity resin (GenScript) for GST-tagged proteins or nickel-nitrilotriacetic acid resin (Qiagen, Valencia, Calif.) for His6-tagged proteins was added into the cell lysate and the mixture was gently shaken for 30 minutes at 4° C. The mixture was applied to a column and the column was washed once with 50 mM Tris-HCl buffer (pH 7.4) containing 160 mM KCl and 5 mM of DTT to reduce thiol group, and washed several times with the same buffer without DTT to remove DTT. For DAN labeling, 100 μg of acrylodan was added to the column at this stage and incubated 16 hours at 4° C. The excess acrylodan was removed by washing the column with the buffer several times. […] Purity and the concentration of the recombinant proteins were determined by sodium dodecylsulfate-polyacrylamide gel electrophoresis and bicinchoninic acid assay, respectively. The DAN labeling yield of eENTH, which was calculated as the molar ratio of DAN (determined spectrophotometrically at 391 nm using its extinction coefficient of 20,000 cm^−1 M^−1) to protein, was typically 60-70%. […]

[2] = molecular target: T2, epsin 1 ENTH domain (SEQ ID NO: 1) variant C96A (Homo sapiens, UniProt Q9Y6I3, C96A); experiment: SPR equilibrium binding of epsin1 ENTH C96A to phosphoinositide-containing LUVs; conditions: POPC/POPS/PtdIns(4,5)P2 (77:20:3) LUVs, 20 mM Tris-HCl pH 7.4, 0.16 M KCl, read-out: Kd for PtdIns(4,5)P2
T2 construct: The Epsin1 ENTH domain (1-158 amino acids) was subcloned; GST (C, cleaved yes); made in house; host or cells: E. coli BL21 RIL codon plus
T2 sequence (Q9Y6I3 1-158 C96A): T1 sequence (Q9Y6I3 1-158) with C96A
Excerpt: as §1, §2
All mutations (S4W, M10C, and C96A) were performed by polymerase chain reaction mutagenesis and verified by DNA sequencing. eENTH may comprise the following sequence:
E. coli BL21 RIL codon plus (Stratagene) cells were used for protein expression. Cells were grown in Luria broth media containing 100 μg/ml of ampicillin at 37° C. 0.1 mM of Isopropyl β-D-1-thiogalactopyranoside was added to induce over-expression of recombinant proteins when the OD600 reached 0.5-0.8 and cells were grown for additional 6 to 10 hours at 25° C. Cells were harvested by centrifugation and cell pellets were resuspended in 50 mM Tris-HCl buffer (pH 7.4) containing 160 mM KCl, 1 mM phenylmethanesulphonylfluoride, and 5 mM of dithiothreitol (DTT). Cells were lysed by sonication and the lysate was collected by centrifugation at 4° C. […] Purity and the concentration of the recombinant proteins were determined by sodium dodecylsulfate-polyacrylamide gel electrophoresis and bicinchoninic acid assay, respectively. The DAN labeling yield of eENTH, which was calculated as the molar ratio of DAN (determined spectrophotometrically at 391 nm using its extinction coefficient of 20,000 cm^−1 M^−1) to protein, was typically 60-70%. […]

Kd ([1]; SPR, POPC/POPS/PtdIns(4,5)P2 (77:20:3) LUVs, 20 mM Tris-HCl pH 7.4, 0.16 M KCl, read-out: Kd for PtdIns(4,5)P2): 0.05 µM
PtdIns(4,5)P2/PtdIns(3,4,5)P3 selectivity ([1]; wild type): 4
Kd [2]: 0.053 µM
Structure (SMILES): CCCCCCCCCCCCCCCC(=O)OC[C@H](COP(=O)(O)O[C@@H]1[C@H](O)[C@H](O)[C@@H](OP(=O)(O)O)[C@H](OP(=O)(O)O)[C@H]1O)OC(=O)CCCCCCCCCCCCCCC [PtdIns(4,5)P2, phosphatidylinositol-4,5-bisphosphate]
